Reference: patent publication US20230085307A1, “PYRIDAZINONE COMPOUND AND HERBICIDE” (NISSAN CHEMICAL CORPORATION, priority 2019, published 2023)

Experiments:
[1] = test system: lambsquarters; test: Test Example 5: herbicidal effect by foliage application, plastic box (Table 20, symbol O); assay type: in vivo, lambsquarters (Chenopodium album); conditions: foliage application, 320 g/ha, three weeks after application
Outline: (§1)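 Plants were sown into sterilized diluvial soil under about 1.5 cm cover and kept in a greenhouse at 25° C. to 30° C. Fourteen days on, foliage received an even spray of the diluted emulsion. Herbicidal or crop effect was judged three weeks afterwards.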

[2] = test system: Chinese sprangletop; test: Test Example 3: herbicidal effect by foliage application, Wagner pot (Table 18, symbol D); assay type: in vivo, chinese sprangletop (Leptochloa chinensis)
Outline: (§2)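 Plants were sown in alluvial soil held under 0.1–0.5 cm standing water and grown 14 days in a greenhouse at 25–30 °C. An emulsifiable formulation, water-diluted to the set dose, was then sprayed onto the foliage, and effects were scored three weeks later using previously defined criteria.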

[3] = test system: late watergrass; test: Test Example 1: herbicidal activity, application before weed generation under submerged conditions (Table 16, symbol A); assay type: in vivo, late watergrass (Echinochloa oryzicola); conditions: for Herbicidal effect, A: late watergrass: amount of applied herbicide 320 g/ha; for Herbicidal effect on A: late watergrass (grade 0-5): 320 g/ha applied herbicide
Outline: (§3)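 Emulsion formulation, water-diluted to set dose, was put onto the flooded surface (4 cm depth, alluvial soil) the same day weeds were sown and 2.5-leaf rice transplanted. After 3 weeks at 25-30 °C under glass, each species was rated 0 (≤5% kill) to 5 (≥90% kill).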

[4] = test system: persian speedwell; test: Test Example 5: herbicidal effect by foliage application, plastic box (Table 20, symbol R); assay type: in vivo, Persian speedwell (Veronica persica); conditions: foliage application, 320 g/ha, three weeks after application
Outline: as §1

[5] = test system: velvetleaf; test: Test Example 5: herbicidal effect by foliage application, plastic box (Table 20, symbol M); assay type: in vivo, velvetleaf (Abutilon theophrasti); conditions: foliage application, 320 g/ha, three weeks after application
Outline: as §1

[6] = test system: Japanese bulrush; test: Test Example 2: herbicidal activity, application during weed generation under submerged conditions (Table 17, symbol B); assay type: in vivo, Japanese bulrush (Schoenoplectus juncoides); conditions: for herbicidal effect rating, B: Japanese bulrush: AAH 320 g/ha, application during weed generation, submerged conditions
Outline: (§4)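 Steps: fill Wagner pots with alluvial soil; add water to give 4 cm depth; sow the species mixed; grow under glass at 25–30° C.; at 1–2 leaves apply water-diluted emulsion formulation to the water surface at a fixed herbicide amount; score after 3 weeks.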

[7] = test system: oval-leafed pondweed; test: Test Example 2: herbicidal activity, application during weed generation under submerged conditions (Table 17, symbol C); assay type: in vivo, oval-leafed pondweed (Monochoria vaginalis); conditions: for herbicidal effect rating, C: oval-leafed pondweed: AAH 320 g/ha, application during weed generation, submerged conditions
Outline: as §4

[8] = test system: southern crabgrass; test: Test Example 5: herbicidal effect by foliage application, plastic box (Table 20, symbol F); assay type: in vivo, southern crabgrass (Digitaria ciliaris); conditions: foliage application, 320 g/ha, three weeks after application
Outline: as §1

[9] = test system: wild oat; test: Test Example 5: herbicidal effect by foliage application, plastic box (Table 20, symbol I); assay type: in vivo, wild oat (Avena fatua); conditions: foliage application, 320 g/ha, three weeks after application
Outline: as §1

[10] = test system: Italian ryegrass; test: Test Example 5: herbicidal effect by foliage application, plastic box (Table 20, symbol K); assay type: in vivo, Italian ryegrass (Lolium multiflorum); conditions: foliage application, 320 g/ha, three weeks after application
Outline: as §1

[11] = test system: Japanese bulrush; test: Test Example 1: herbicidal activity, application before weed generation under submerged conditions (Table 16, symbol B); assay type: in vivo, Japanese bulrush (Schoenoplectus juncoides); conditions: for Herbicidal effect, B: Japanese bulrush: amount of applied herbicide 320 g/ha; for Herbicidal effect on B: Japanese bulrush (grade 0-5): 320 g/ha applied herbicide
Outline: as §3

[12] = test system: late watergrass; test: Test Example 2: herbicidal activity, application during weed generation under submerged conditions (Table 17, symbol A); assay type: in vivo, late watergrass (Echinochloa oryzicola); conditions: for herbicidal effect rating, A: late watergrass: AAH 320 g/ha, application during weed generation, submerged conditions
Outline: as §4

[13] = test system: barnyard grass; test: Test Example 5: herbicidal effect by foliage application, plastic box (Table 20, symbol H); assay type: in vivo, barnyard grass (Echinochloa crus-galli); conditions: foliage application, 320 g/ha, three weeks after application
Outline: as §1

[14] = test system: blackgrass; test: Test Example 5: herbicidal effect by foliage application, plastic box (Table 20, symbol J); assay type: in vivo, blackgrass (Alopecurus myosuroides); conditions: foliage application, 320 g/ha, three weeks after application
Outline: as §1

[15] = test system: oval-leafed pondweed; test: Test Example 1: herbicidal activity, application before weed generation under submerged conditions (Table 16, symbol C); assay type: in vivo, oval-leafed pondweed (Monochoria vaginalis); conditions: for Herbicidal effect, C: oval-leafed pondweed: amount of applied herbicide 320 g/ha; for Herbicidal effect on C: oval-leafed pondweed (grade 0-5): 320 g/ha applied herbicide
Outline: as §3

[16] = test system: rice flat sedge; test: Test Example 3: herbicidal effect by foliage application, Wagner pot (Table 18, symbol E); assay type: in vivo, rice flat sedge (Cyperus iria)
Outline: as §2

[17] = test system: barnyard grass; test: Test Example 3: herbicidal effect by foliage application, Wagner pot (Table 18, symbol H); assay type: in vivo, barnyard grass (Echinochloa crus-galli)
Outline: as §2

[18] = test system: green foxtail; test: Test Example 5: herbicidal effect by foliage application, plastic box (Table 20, symbol G); assay type: in vivo, green foxtail (Setaria viridis); conditions: foliage application, 320 g/ha, three weeks after application
Outline: as §1

[19] = test system: windgrass; test: Test Example 5: herbicidal effect by foliage application, plastic box (Table 20, symbol L); assay type: in vivo, windgrass (Apera spica-venti); conditions: foliage application, 320 g/ha, three weeks after application
Outline: as §1

[20] = amount of applied herbicide 320 g/ha
[21] = application during weed generation under submerged conditions, amount of applied herbicide 320 g/ha

| SMILES | herbicidal effect rating, B: Japanese bulrush [6] | herbicidal effect rating, C: oval-leafed pondweed [7] | herbicidal effect rating, A: late watergrass [12] | Herbicidal effect on A: late watergrass (grade 0-5) [3] | Herbicidal effect on B: Japanese bulrush (grade 0-5) [11] | Herbicidal effect on C: oval-leafed pondweed (grade 0-5) [15] | herbicidal effect on D: Chinese sprangletop [2, 20] | herbicidal effect on E: rice flat sedge [16, 20] | herbicidal effect on H: barnyard grass [17, 20] | further results |
| --- | --- | --- | --- | --- | --- | --- | --- | --- | --- | --- |
| CCCC(=O)Oc1c(C)nn(C)c(=O)c1-c1c(-c2ccc(F)cc2OCC)sc2cc(C)c(C)cc12 [5-104] | 4 (Herbicidal rate of 70% or more and less than 90%) | 4 (Herbicidal rate of 70% or more and less than 90%) | 4 (Herbicidal rate of 70% or more and less than 90%) |  |  |  |  |  |  | herbicidal effect on lambsquarters (O) [1]: 4 (Herbicidal rate of 70% or more and less than 90%); herbicidal effect on Chinese sprangletop (D) ([2]; 320 g/ha): 5 (Herbicidal rate of 90% or more (almost completely withered)); Herbicidal effect, A: late watergrass [3]: 4 (Herbicidal rate of 70% or more and less than 90%); herbicidal effect on persian speedwell (R) [4]: 5 (Herbicidal rate of 90% or more (almost completely withered)); herbicidal effect on velvetleaf (M) [5]: 4 (Herbicidal rate of 70% or more and less than 90%); herbicidal effect on southern crabgrass (F) [8]: 5 (Herbicidal rate of 90% or more (almost completely withered)); herbicidal effect on wild oat (I) [9]: 4 (Herbicidal rate of 70% or more and less than 90%); herbicidal effect on Italian ryegrass (K) [10]: 4 (Herbicidal rate of 70% or more and less than 90%); Herbicidal effect, B: Japanese bulrush [11]: 0 (Herbicidal rate of 5% or less (almost no effect)); herbicidal effect on barnyard grass (H) [13]: 4 (Herbicidal rate of 70% or more and less than 90%); herbicidal effect on blackgrass (J) [14]: 4 (Herbicidal rate of 70% or more and less than 90%); Herbicidal effect, C: oval-leafed pondweed [15]: 0 (Herbicidal rate of 5% or less (almost no effect)); herbicidal effect on rice flat sedge (E) ([16]; 320 g/ha): 4 (Herbicidal rate of 70% or more and less than 90%); herbicidal effect on barnyard grass (H) ([17]; 320 g/ha): 5 (Herbicidal rate of 90% or more (almost completely withered)); herbicidal effect on green foxtail (G) [18]: 4 (Herbicidal rate of 70% or more and less than 90%); herbicidal effect on windgrass (L) [19]: 4 (Herbicidal rate of 70% or more and less than 90%) |
| Cc1nn(C)c(=O)c(-c2c(-c3ccc(OCCOC(C)C)cc3)sc3ccccc23)c1O [1-226] | 3 (Herbicidal rate of 40% or more and less than 70%) | 3 (Herbicidal rate of 40% or more and less than 70%) | 5 (Herbicidal rate of 90% or more (almost completely withered)) | 5 (Herbicidal rate of 90% or more (almost completely withered)) | 4 (Herbicidal rate of 70% or more and less than 90%) | 4 (Herbicidal rate of 70% or more and less than 90%) |  |  |  | herbicidal effect on D (Chinese sprangletop), rating 0-5 ([2]; 320 g/ha): 5 (Herbicidal rate of 90% or more (almost completely withered)); herbicidal effect on E (rice flat sedge), rating 0-5 ([16]; 320 g/ha): 4 (Herbicidal rate of 70% or more and less than 90%); herbicidal effect on H (barnyard grass), rating 0-5 ([17]; 320 g/ha): 5 (Herbicidal rate of 90% or more (almost completely withered)) |
| CCCC(=O)Oc1c(C)nn(C)c(=O)c1-c1c(-c2ccc(OCCOC)cc2)oc2ccc(C)cc12 [9-064] |  |  |  |  |  |  |  |  |  | Herbicidal effect on D (Chinese sprangletop), foliage application [2, 20]: 1 (Herbicidal rate of 5% or more and less than 20%); Herbicidal effect, A: late watergrass [3]: 5 (Herbicidal rate of 90% or more (almost completely withered)); herbicidal effect grade, B: Japanese bulrush [6, 21]: 3 (Herbicidal rate of 40% or more and less than 70%); herbicidal effect grade, C: oval-leafed pondweed [7, 21]: 4 (Herbicidal rate of 70% or more and less than 90%); Herbicidal effect, B: Japanese bulrush [11]: 5 (Herbicidal rate of 90% or more (almost completely withered)); herbicidal effect grade, A: late watergrass [12, 21]: 4 (Herbicidal rate of 70% or more and less than 90%); Herbicidal effect, C: oval-leafed pondweed [15]: 5 (Herbicidal rate of 90% or more (almost completely withered)); Herbicidal effect on E (rice flat sedge), foliage application [16, 20]: 5 (Herbicidal rate of 90% or more (almost completely withered)); Herbicidal effect on H (barnyard grass), foliage application [17, 20]: 5 (Herbicidal rate of 90% or more (almost completely withered)) |
| COc1cc(OC)cc(-c2sc3ccc(F)cc3c2-c2c(O)c(C)nn(C)c2=O)c1 [2-360] | 0 (Herbicidal rate of 5% or less (almost no effect)) | 0 (Herbicidal rate of 5% or less (almost no effect)) | 2 (Herbicidal rate of 20% or more and less than 40%) | 3 (Herbicidal rate of 40% or more and less than 70%) | 2 (Herbicidal rate of 20% or more and less than 40%) | 0 (Herbicidal rate of 5% or less (almost no effect)) | 4 (Herbicidal rate of 70% or more and less than 90%) | 3 (Herbicidal rate of 40% or more and less than 70%) | 5 (Herbicidal rate of 90% or more (almost completely withered)) |  |
| CSCCCOc1ccc(-c2sc3ccccc3c2-c2c(O)c(C)nn(C)c2=O)cc1 [1-222] | 3 (Herbicidal rate of 40% or more and less than 70%) | 4 (Herbicidal rate of 70% or more and less than 90%) | 5 (Herbicidal rate of 90% or more (almost completely withered)) | 5 (Herbicidal rate of 90% or more (almost completely withered)) | 4 (Herbicidal rate of 70% or more and less than 90%) | 4 (Herbicidal rate of 70% or more and less than 90%) |  |  |  | herbicidal effect on D (Chinese sprangletop), rating 0-5 ([2]; 320 g/ha): 5 (Herbicidal rate of 90% or more (almost completely withered)); herbicidal effect on E (rice flat sedge), rating 0-5 ([16]; 320 g/ha): 4 (Herbicidal rate of 70% or more and less than 90%); herbicidal effect on H (barnyard grass), rating 0-5 ([17]; 320 g/ha): 5 (Herbicidal rate of 90% or more (almost completely withered)) |
| Cc1nn(C)c(=O)c(-c2c(-c3ccc(CS(C)(=O)=O)cc3)sc3ccc(F)cc23)c1O [2-334] | 0 (Herbicidal rate of 5% or less (almost no effect)) | 0 (Herbicidal rate of 5% or less (almost no effect)) | 3 (Herbicidal rate of 40% or more and less than 70%) | 3 (Herbicidal rate of 40% or more and less than 70%) | 0 (Herbicidal rate of 5% or less (almost no effect)) | 0 (Herbicidal rate of 5% or less (almost no effect)) | 4 (Herbicidal rate of 70% or more and less than 90%) | 5 (Herbicidal rate of 90% or more (almost completely withered)) | 5 (Herbicidal rate of 90% or more (almost completely withered)) |  |
| CCCC(=O)Oc1c(C)nn(C)c(=O)c1-c1c(-c2ccc(C(F)(F)F)cc2Cl)sc2ccc(F)cc12 [2-357] | 0 (Herbicidal rate of 5% or less (almost no effect)) | 0 (Herbicidal rate of 5% or less (almost no effect)) | 2 (Herbicidal rate of 20% or more and less than 40%) | 4 (Herbicidal rate of 70% or more and less than 90%) | 2 (Herbicidal rate of 20% or more and less than 40%) | 0 (Herbicidal rate of 5% or less (almost no effect)) | 3 (Herbicidal rate of 40% or more and less than 70%) | 2 (Herbicidal rate of 20% or more and less than 40%) | 5 (Herbicidal rate of 90% or more (almost completely withered)) |  |
